From patent US20060263802A1 (priority 2003, published 2006)

Columns and labels:
Assay type in all cases: binding
[1] = system: human monoclonal antibody CR57
[2] = system: human monoclonal antibody CR57; remark: listed apart in the source
[3] = system: human monoclonal antibody CRJA
[4] = system: human monoclonal antibody CRJB
[5] = system: human monoclonal antibody CRJB; remark: listed apart in the source
[6] = system: human monoclonal antibody CRJA; remark: listed apart in the source

Row | Sequence | Binding of CR57 to linear peptide (PEPSCAN-ELISA signal) [1] | Binding of CR57 (10 μg/ml) to looped/cyclic peptide (PEPSCAN-ELISA) [2] | Binding of CRJA (10 μg/ml) to looped/cyclic peptide (PEPSCAN-ELISA) [3] | Binding of CRJB (10 μg/ml) to looped/cyclic peptide (PEPSCAN-ELISA) [4] | Binding of CRJB to linear peptide (PEPSCAN-ELISA signal) [5] | Binding of CRJA to linear peptide (PEPSCAN-ELISA signal) [6] | Binding of CR57 (10 μg/ml) to looped/cyclic peptide (PEPSCAN-ELISA signal) [2] | Binding of CRJA (10 μg/ml) to looped/cyclic peptide (PEPSCAN-ELISA signal) [3] | Binding of CRJB (10 μg/ml) to looped/cyclic peptide (PEPSCAN-ELISA signal) [4] | binding of antibody CR57 to linear peptide (PEPSCAN OD) [1] | Binding of human monoclonal antibody CR57 to linear peptide (PEPSCAN-ELISA signal) [1] | Binding of CR57 to looped/cyclic peptide (PEPSCAN-ELISA signal) [2] | Binding of CRJA to looped/cyclic peptide (PEPSCAN-ELISA signal) [3] | Binding of CRJB to looped/cyclic peptide (PEPSCAN-ELISA signal) [4] | Binding of human monoclonal antibody CRJB to linear peptide (PEPSCAN-ELISA signal) [5] | Binding of human monoclonal antibody CRJA to linear peptide (PEPSCAN-ELISA signal) [6] | binding of antibody CRJA to looped/cyclic peptide (PEPSCAN OD) [3]
1 | CLDALESIMTTKSVS | 101 | 111 | 123 | 90 | 146 | 106 |  |  |  |  |  |  |  |  |  |  | 
2 | AAYNWKMAGDPRYEE | 68 |  |  |  | 106 | 78 | 104 | 78 | 90 |  |  |  |  |  |  |  | 
3 | LVVEDEGCTNLSGFS | 76 |  |  |  | 103 | 58 | 76 | 104 | 82 |  |  |  |  |  |  |  | 
4 | PYDRSLHSRVFPSGK | 86 |  |  |  | 120 | 104 | 134 | 113 | 90 |  |  |  |  |  |  |  | 
5 | RTWNEILPSKGCLRV | 120 | 107 | 102 | 93 | 127 | 97 |  |  |  |  |  |  |  |  |  |  | 
6 | MDGTWVAMQTSNETK | 97 | 114 | 90 | 82 | 97 | 85 |  |  |  |  |  |  |  |  |  |  | 
7 | LKGACKLKLCGVLGL | 340 | 105 | 87 | 76 | 90 | 100 |  |  |  | bound |  |  |  |  |  |  | 
8 | VHNQVSGVDLGLPNW |  |  |  |  |  |  |  |  |  |  | 100 | 125 | 106 | 106 | 119 | 120 | 
9 | AGDPRYEESLHNPYP | 40 |  |  |  | 101 | 83 | 64 | 58 | 54 |  |  |  |  |  |  |  | 
10 | VEVHLPDVHNQVSGV |  |  |  |  |  |  |  |  |  |  | 106 | 138 | 120 | 104 | 141 | 117 | 
11 | CTGVVTEAENYTNFV | 76 |  |  |  | 123 | 89 | 92 | 101 | 85 |  |  |  |  |  |  |  | 
12 | VADLDPYDRSLHSRV | 71 |  |  |  | 113 | 92 | 85 | 89 | 74 |  |  |  |  |  |  |  | 
13 | YCSTNHDYTIWMPEN | 47 |  |  |  | 92 | 76 | 65 | 468 | 71 |  |  |  |  |  |  |  | clearly bound
14 | ADLDPYDRSLHSRVF | 70 |  |  |  | 121 | 100 | 93 | 92 | 73 |  |  |  |  |  |  |  | 
15 | ERGLYKSLKGACKLK | 90 | 100 | 104 | 72 | 118 | 101 |  |  |  |  |  |  |  |  |  |  | 
16 | LPSKGCLRVGGRCHP | 77 | 80 | 52 | 85 | 119 | 58 |  |  |  |  |  |  |  |  |  |  | 
17 | IYTILDKLGPWSPID | 44 |  |  |  | 97 | 83 | 66 | 78 | 58 |  |  |  |  |  |  |  | 
18 | VVTEAENYTNFVGYV | 87 |  |  |  | 106 | 90 | 80 | 58 | 62 |  |  |  |  |  |  |  | 
19 | TTFKRKHFRPTPDAC | 74 |  |  |  | 99 | 111 | 86 | 89 | 78 |  |  |  |  |  |  |  | 
20 | ESIMTTKSVSFRRLS | 62 | 80 | 49 | 92 | 111 | 61 |  |  |  |  |  |  |  |  |  |  | 
21 | VLGLRLMDGTWVAMQ | 90 | 94 | 108 | 106 | 141 | 107 |  |  |  |  |  |  |  |  |  |  | 
22 | TEAENYTNFVGYVTT | 68 |  |  |  | 84 | 86 | 75 | 76 | 60 |  |  |  |  |  |  |  | 
23 | EGCTNLSGFSYMELK | 51 |  |  |  | 114 | 59 | 39 | 38 | 73 |  |  |  |  |  |  |  | 
